These results are taken from PubChem BioAssay AID651973 (The Scripps Research Institute Molecular Screening Center, 2013).

Activity calls are given as the source filed them. How the calls were made is not given here. Bounds are passed on as bounds.

This experiment has as its system Cell-based VP16 transactivation luciferase reporter, luminescence. Description: VP16 transactivation reporter inhibitors, dose response, counter-screen for LRH-1 inverse agonist project, cell-based, luminescence (AID 651973).

In the case of `CCOc1ccc(NC(=O)CSc2nncc(=O)[nH]2)cc1`, the IC50 was > 35.9 µM (inactive).
Turning to `Cc1cc(Br)ccc1NC(=O)CN1C(=O)CCC1=O`, the IC50 is > 35.9 µM (inactive).
In the case of `Cc1c(NC(=S)NC(=O)c2ccc(Cl)cc2)c(=O)n(-c2ccccc2)n1C` it was > 35.9 µM (inactive).
The value for `CCc1c(C)nc(SCC(=O)Nc2ccc3c(c2)OCCO3)[nH]c1=O` was > 35.9 µM (inactive); that for `CCCN(CC(=O)Nc1ccccc1C)CC(=O)Nc1ccc(Br)cc1F` was > 35.9 µM (inactive).
The value for `Cc1sc(NC(=O)C(C)C)c(C(=O)Nc2ccccc2)c1C` was > 35.9 µM (inactive); that for `COC(=O)c1ccc(COc2ccc(/C=N/NC(N)=S)cc2)o1` was > 35.9 µM (inactive); that for `Cc1ccc(NC(=O)CN2C(=O)NC(C)(CC(C)C)C2=O)c(Br)c1` (stereo unspecified) was > 35.9 µM (inactive).
As for `CCCc1cc(=O)oc2cc(C)cc(OCC(=O)Nc3ccccn3)c12`, the IC50 is > 35.9 µM (inactive).
`CCCNC(=O)c1sc2c(c1C(=O)Nc1ccccn1)CCCC2`: the IC50 is > 35.9 µM (inactive).
The value for `COc1cc(/C=N/n2nnnc2N)ccc1OCc1c(C)no[n+]1[O-]` was > 35.9 µM (inactive); that for `COC(=O)c1ccc(NC(=O)CSc2ccc(-c3ccccn3)nn2)cc1` was > 35.9 µM (inactive); that for `COC(=O)c1ccc(NC(=O)CSc2nncn2-c2cccnc2)cc1` was > 35.9 µM (inactive).
In the case of `Cc1cccc(NC(=O)COC(=O)Cc2cccs2)c1C`, the IC50 is > 35.9 µM (inactive).
In the case of `CCOc1ccc(NC(=O)CSc2nccn(-c3ccc4c(c3)OCCO4)c2=O)cc1` it was > 35.9 µM (inactive).
The value for `O=[N+]([O-])c1cc(F)c(N2CCCCCC2)cc1N1CCNCC1` was 19.3 µM (inactive); that for `CCCc1cc(=O)oc2cc(C)cc(OCC(=O)NC3CC3)c12` was > 35.9 µM (inactive).
As to `Cc1ccc(NC(=O)COC(=O)c2cc(=O)c3ccccc3o2)c(Br)c1`, the IC50 is > 35.9 µM (inactive).
The value for `Cc1cc(OCC(=O)NCc2cccnc2)c2c(C)c(C)c(=O)oc2c1` was > 35.9 µM (inactive); that for `Cc1onc(-c2ccccc2)c1C(=O)O/N=C(\N)c1ccc([N+](=O)[O-])o1` was > 35.9 µM (inactive); that for `COc1cc([N+](=O)[O-])ccc1NC(=O)Cn1ccsc1=N` was > 35.9 µM (inactive).
In the case of `CC(=O)c1ccc(NC(=O)C(C)O/N=C(\N)c2ccccc2)cc1` (stereo unspecified), the IC50 was > 35.9 µM (inactive).
In the case of `Cc1ccc(NC(=O)CSc2nnc([C@@H]3CCCN3C(=O)OC(C)(C)C)o2)c(C)c1`, the IC50 is > 35.9 µM (inactive).
Turning to `CC(O)(c1ccc(F)c(F)c1)c1nc(-c2ccc(S(C)(=O)=O)cc2)cs1` (stereo unspecified), the IC50 was 34.7 µM (inactive).
In the case of `COc1ccc(CCNC(=O)CN2C(=O)NC3(CCCCC3)C2=O)cc1` it was > 35.9 µM (inactive); in that of `CC1CC(C)CN(c2cc(N(C)CCO)c([N+](=O)[O-])c3nonc23)C1` (stereo unspecified), > 35.9 µM (inactive).
As to `O=C(NCc1cccnc1)c1cccc2c1C(=O)N(C1CCCCC1)C2`, the IC50 was > 35.9 µM (inactive).
The value for `O=C(Nc1ccc(Cc2ccncc2)cc1)c1cccc([N+](=O)[O-])c1` was > 35.9 µM (inactive).
The value for `CCOc1ccc(OCCC(=O)OCC(=O)Nc2ccc3c(c2)OCCO3)cc1` was > 35.9 µM (inactive).
The value for `COc1ccc(OCCNC(=O)C2(C)CCN2Cc2ccc3ccccc3c2)cc1` (stereo unspecified) was 23.8 µM (inactive); that for `NC(=O)C1CCN(C(=O)COc2ccc3c4c(c(=O)oc3c2)CCC4)CC1` was > 35.9 µM (inactive).
On to `CC(=O)Nc1cc(-c2ccc(F)cc2)cn2c(-c3ccc(S(C)(=O)=O)cc3)cnc12`, for which the IC50 was > 35.9 µM (inactive).
As for `O=C(NCc1ccco1)c1nn(-c2ccccc2)c(=O)c2ccccc12`, the IC50 was > 35.9 µM (inactive).
Turning to `COc1ccccc1NC(=O)CN1CCN(CC(=O)Nc2ccc(S(N)(=O)=O)cc2)CC1`, the IC50 is 20.4 µM (inactive).
Take `COc1ccc(-n2c(/C=C(\C)O)nc(=O)c3c(C)cc(C)nc32)cc1`: the IC50 is > 35.9 µM (inactive).
For the compound `CC(=O)Nc1ccc(NC(=O)CSc2nnnn2C2CCCCC2)cc1`, the IC50 was > 35.9 µM (inactive).
For the compound `COc1ccc(OCCNC(=O)C2(C)CCN2Cc2ccc(SC)cc2)cc1` (stereo unspecified), the IC50 was 28.5 µM (inactive).
The value for `CCCc1cc(=O)oc2c(C)c(OCC(=O)NCCCn3ccnc3)ccc12` was > 35.9 µM (inactive).
The value for `Cc1onc(-c2ccccc2Cl)c1C(=O)O/N=C(\N)c1ccc([N+](=O)[O-])o1` was > 35.9 µM (inactive); that for `COC(=O)c1ccc(NC(=O)COc2cccc(-n3cnnn3)c2)cc1` was > 35.9 µM (inactive).
The value for `COc1ccc(NC(=O)CN2C(=O)NC3(CCCC3)C2=O)cc1` was > 35.9 µM (inactive); that for `CC(O)(c1cccnc1)c1nc(-c2cccc(C#N)c2)cs1` (stereo unspecified) was > 35.9 µM (inactive).
`CCCc1nnc(SCC(=O)Nc2ccc(OC)cc2)o1`: the IC50 is > 35.9 µM (inactive).
For the compound `O=C(Cc1ccc(S(=O)(=O)N2CCCC2)s1)Nc1cccc([N+](=O)[O-])c1`, the IC50 is 14.1 µM (inactive).
In the case of `CCC(C)NC(=O)c1ccc2c(c1)N(Cc1ccccc1)C(=O)CS2` (stereo unspecified) it was > 35.9 µM (inactive); in that of `CCOCC(=O)Nc1ccc(S(=O)(=O)NCCc2ccccc2)cc1`, > 35.9 µM (inactive).
As for `Cc1cccc(NC(=O)CSc2nc3[nH]ncc3c(=O)[nH]2)c1C`, the IC50 was > 35.9 µM (inactive).
In the case of `CCOc1ccc(Cc2nnc(SCC(=O)Nc3ccc(C(C)=O)cc3)[nH]c2=O)cc1` it was > 35.9 µM (inactive); in that of `O=c1[nH]c(Nc2ccc3c(c2)OCCO3)nnc1Cc1ccccc1`, > 35.9 µM (inactive).
The value for `COc1ccc(C2(C)NC(=O)N(CC(=O)NCCC3=CCCCC3)C2=O)cc1OC` (stereo unspecified) was > 35.9 µM (inactive).
With `COc1ccccc1Oc1nnnn1-c1ccc(C(N)=O)cc1`, the IC50 is > 35.9 µM (inactive).
On to `Cc1ccc(C)c(NC(=O)CSc2nc3[nH]ncc3c(=O)[nH]2)c1`, for which the IC50 was > 35.9 µM (inactive).
The value for `Cc1cccc(NC(=O)COC(=O)CN2C(=O)c3ccccc3C2=O)c1C` was > 35.9 µM (inactive).
In the case of `Cc1no[n+]([O-])c1COc1ccccc1/C=N/n1nnnc1N` it was > 35.9 µM (inactive); in that of `O=C(NCC1CCCO1)c1ccc(NC(=O)c2cccc([N+](=O)[O-])c2)cc1` (stereo unspecified), > 35.9 µM (inactive).
In the case of `O=C(COC(=O)CCN1C(=O)C2CC=CCC2C1=O)NCCc1ccc(F)cc1` (stereo unspecified) it was > 35.9 µM (inactive).
